Reference: ChEMBL document CHEMBL5390307, “Sila-CBD Derivatives as Inhibitors of Heme-Induced NLRP3 Inflammasome: Application in Hemolytic Diseases” (ACS Med Chem Lett, 2023)
Activity calls are given as the source filed them. No cut-off for these calls is given here.

Assays:
J774.A1 = test: Cytotoxicity against mouse J774.A1 cells assessed as reduction in cell viability at 10 uM incubated for 24 hrs by MTT assay; type: toxicity, cell-based; conditions: j774.a1, 24 h
[1] = molecular target: NACHT, LRR and PYD domains-containing protein 3 (Homo sapiens) (UniProt Q96P20); test: Inhibition of NLRP3 mediated in HEME-induced inflammasome in human PMA differentiated THP-1 cells assessed as reduction in IL-1beta level in presence of LPS at 10 uM pretreated for 1 hr followed by hemin addition measured after 1 hrs by ELISA method relative to control; type: cell-based; conditions: time 2.0 hrs
Mus musculus [2] = test: Antiinflammatory activity against LPS/HEME-induced Balb/C mouse model assessed as reduction of IL-1 beta secretion at 30 mg/kg, ip administered for 30 mins followed by LPS for 4 hrs incubation and later stimulated with HEME for 1 hrs by ELISA; type: functional, organism-based; conditions: time 330.0 min
[3] = molecular target: NACHT, LRR and PYD domains-containing protein 3 (Mus musculus) (UniProt Q8R4B8); test: Inhibition of NLRP3 inflammasome in mouse J774.A1 cells assessed as reduction in TNF-alpha in presence of LPS at 0.1 to 1 uM pretreated for 1 hr followed by LPS stimulation measured after 24 hrs by ELISA method; type: cell-based; conditions: dose 0.1-1 µM, time 25.0 hrs
[4] = molecular target: NACHT, LRR and PYD domains-containing protein 3 (Mus musculus) (UniProt Q8R4B8); test: Inhibition of NLRP3 inflammasome in mouse J774.A1 cells assessed as reduction in IL-6 in presence of LPS at 0.1 to 1 uM pretreated for 1 hr followed by LPS stimulation measured after 24 hrs by ELISA method; type: cell-based; conditions: dose 0.1-1 µM, time 25.0 hrs
[5] = molecular target: NACHT, LRR and PYD domains-containing protein 3 (Mus musculus) (UniProt Q8R4B8); test: Inhibition of NLRP3 inflammasome in mouse J774.A1 cells assessed as reduction in TNF-alpha in presence of LPS at 10 uM pretreated for 1 hr followed by LPS stimulation measured after 24 hrs by ELISA method; type: cell-based; conditions: time 25.0 hrs
[6] = molecular target: NACHT, LRR and PYD domains-containing protein 3 (Homo sapiens) (UniProt Q96P20); test: Inhibition of NLRP3 mediated in HEME-induced inflammasome in human PMA differentiated THP-1 cells assessed as reduction in IL-1beta level in presence of LPS at 1 uM pretreated for 1 hr followed by hemin addition measured after 1 hrs by ELISA method relative to control; type: cell-based; conditions: time 2.0 hrs
[7] = Metabolic stability in human liver microsomes assessed as drug degradation measured after 5 mins by LC-MS method relative to control; type: ADME, Microsome; conditions: read-out: Drug degradation
[8] = Metabolic stability in mouse liver microsomes assessed as drug degradation in the presence of NADPH measured after 5 mins by LC-MS method; type: ADME, Microsome
[9] = molecular target: NACHT, LRR and PYD domains-containing protein 3 (Homo sapiens) (UniProt Q96P20); test: Inhibition of NLRP3 mediated in HEME-induced inflammasome in human PMA differentiated THP-1 cells assessed as reduction in IL-1beta level in presence of LPS at 0.1 uM pretreated for 1 hr followed by hemin addition measured after 1 hrs by ELISA method relative to control; type: cell-based; conditions: time 2.0 hrs
Mus musculus [10] = test: Antiinflammatory activity against LPS/HEME-induced Balb/C mouse model assessed as reduction of IL-1 beta secretion at 10 mg/kg, ip administered for 30 mins followed by LPS for 4 hrs incubation and later stimulated with HEME for 1 hrs by ELISA; type: functional, organism-based; conditions: time 330.0 min
[11] = molecular target: NACHT, LRR and PYD domains-containing protein 3 (Homo sapiens) (UniProt Q96P20); test: Inhibition of NLRP3 mediated in HEME-induced inflammasome in human PMA differentiated THP-1 cells assessed as reduction in IL-1beta level in presence of LPS at 0.1 to 10 uM pretreated for 1 hr followed by hemin addition measured after 1 hrs by ELISA method; type: cell-based; conditions: dose 0.1-10 µM, time 2.0 hrs
[12] = molecular target: NACHT, LRR and PYD domains-containing protein 3 (Homo sapiens) (UniProt Q96P20); test: Inhibition of NLRP3 mediated in HEME-induced inflammasome in human PMA differentiated THP-1 cells assessed as reduction in IL-1beta level in presence of LPS at 10 uM pretreated for 1 hr followed by hemin addition measured after 1 hrs by ELISA method; type: cell-based; conditions: time 2.0 hrs
[13] = molecular target: NACHT, LRR and PYD domains-containing protein 3 (Homo sapiens) (UniProt Q96P20); test: Inhibition of NLRP3 mediated in HEME-induced inflammasome in human PMA differentiated THP-1 cells assessed as reduction in IL-1beta level in presence of LPS at 1 uM pretreated for 1 hr followed by hemin addition measured after 1 hrs by ELISA method; type: cell-based; conditions: time 2.0 hrs
Mus musculus [14] = test: Antiinflammatory activity against LPS/HEME-induced Balb/C mouse model assessed as reduction of IL-1 beta secretion at 1 mg/kg, ip administered for 30 mins followed by LPS for 4 hrs incubation and later stimulated with HEME for 1 hrs by ELISA; type: functional, organism-based; conditions: time 330.0 min
[15] = Metabolic stability in mouse liver microsomes assessed as drug degradation measured after 5 mins in absence of NADPH by single ion monitoring mode based LC-MS method relative to control; type: ADME, Microsome; conditions: read-out: Drug degradation
[16] = Metabolic stability in mouse liver microsomes in presence of NADPH measured after 5 mins by single ion monitoring mode based LC-MS method; type: ADME, Microsome
[17] = molecular target: NACHT, LRR and PYD domains-containing protein 3 (Mus musculus) (UniProt Q8R4B8); test: Inhibition of NLRP3 inflammasome in mouse J774.A1 cells assessed as reduction in IL-6 in presence of LPS at 10 uM pretreated for 1 hr followed by LPS stimulation measured after 24 hrs by ELISA method; type: cell-based; conditions: time 25.0 hrs

Sequence of NACHT, LRR and PYD domains-containing protein 3 (Homo sapiens) (Q96P20 whole entry, the tested form may be a part): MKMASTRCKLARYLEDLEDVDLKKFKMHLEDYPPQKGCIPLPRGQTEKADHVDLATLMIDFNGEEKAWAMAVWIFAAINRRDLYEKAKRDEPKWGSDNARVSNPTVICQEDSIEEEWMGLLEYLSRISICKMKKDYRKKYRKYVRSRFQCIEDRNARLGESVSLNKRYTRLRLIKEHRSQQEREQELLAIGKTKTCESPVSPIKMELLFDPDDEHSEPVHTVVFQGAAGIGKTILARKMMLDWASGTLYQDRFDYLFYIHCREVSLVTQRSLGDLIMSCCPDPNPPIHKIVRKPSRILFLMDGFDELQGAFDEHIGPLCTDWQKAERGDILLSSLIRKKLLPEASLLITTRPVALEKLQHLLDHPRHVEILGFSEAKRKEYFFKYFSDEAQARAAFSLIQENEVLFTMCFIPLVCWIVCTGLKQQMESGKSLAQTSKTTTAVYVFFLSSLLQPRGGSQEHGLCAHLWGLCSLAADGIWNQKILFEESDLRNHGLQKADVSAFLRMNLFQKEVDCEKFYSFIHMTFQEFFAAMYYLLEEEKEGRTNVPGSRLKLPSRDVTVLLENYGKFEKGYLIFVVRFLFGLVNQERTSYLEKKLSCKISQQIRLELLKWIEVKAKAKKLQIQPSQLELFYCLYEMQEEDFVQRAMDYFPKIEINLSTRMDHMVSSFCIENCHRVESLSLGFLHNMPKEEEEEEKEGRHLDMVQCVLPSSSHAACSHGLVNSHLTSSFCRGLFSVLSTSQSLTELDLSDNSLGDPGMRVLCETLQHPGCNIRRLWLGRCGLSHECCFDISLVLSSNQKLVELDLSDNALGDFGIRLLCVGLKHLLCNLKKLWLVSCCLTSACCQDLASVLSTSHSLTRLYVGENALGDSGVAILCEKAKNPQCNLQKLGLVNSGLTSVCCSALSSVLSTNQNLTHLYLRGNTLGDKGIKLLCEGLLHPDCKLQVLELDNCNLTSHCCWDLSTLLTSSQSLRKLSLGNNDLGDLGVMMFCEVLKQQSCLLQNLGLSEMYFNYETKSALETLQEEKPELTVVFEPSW
Sequence of NACHT, LRR and PYD domains-containing protein 3 (Mus musculus) (Q8R4B8 whole entry, the tested form may be a part): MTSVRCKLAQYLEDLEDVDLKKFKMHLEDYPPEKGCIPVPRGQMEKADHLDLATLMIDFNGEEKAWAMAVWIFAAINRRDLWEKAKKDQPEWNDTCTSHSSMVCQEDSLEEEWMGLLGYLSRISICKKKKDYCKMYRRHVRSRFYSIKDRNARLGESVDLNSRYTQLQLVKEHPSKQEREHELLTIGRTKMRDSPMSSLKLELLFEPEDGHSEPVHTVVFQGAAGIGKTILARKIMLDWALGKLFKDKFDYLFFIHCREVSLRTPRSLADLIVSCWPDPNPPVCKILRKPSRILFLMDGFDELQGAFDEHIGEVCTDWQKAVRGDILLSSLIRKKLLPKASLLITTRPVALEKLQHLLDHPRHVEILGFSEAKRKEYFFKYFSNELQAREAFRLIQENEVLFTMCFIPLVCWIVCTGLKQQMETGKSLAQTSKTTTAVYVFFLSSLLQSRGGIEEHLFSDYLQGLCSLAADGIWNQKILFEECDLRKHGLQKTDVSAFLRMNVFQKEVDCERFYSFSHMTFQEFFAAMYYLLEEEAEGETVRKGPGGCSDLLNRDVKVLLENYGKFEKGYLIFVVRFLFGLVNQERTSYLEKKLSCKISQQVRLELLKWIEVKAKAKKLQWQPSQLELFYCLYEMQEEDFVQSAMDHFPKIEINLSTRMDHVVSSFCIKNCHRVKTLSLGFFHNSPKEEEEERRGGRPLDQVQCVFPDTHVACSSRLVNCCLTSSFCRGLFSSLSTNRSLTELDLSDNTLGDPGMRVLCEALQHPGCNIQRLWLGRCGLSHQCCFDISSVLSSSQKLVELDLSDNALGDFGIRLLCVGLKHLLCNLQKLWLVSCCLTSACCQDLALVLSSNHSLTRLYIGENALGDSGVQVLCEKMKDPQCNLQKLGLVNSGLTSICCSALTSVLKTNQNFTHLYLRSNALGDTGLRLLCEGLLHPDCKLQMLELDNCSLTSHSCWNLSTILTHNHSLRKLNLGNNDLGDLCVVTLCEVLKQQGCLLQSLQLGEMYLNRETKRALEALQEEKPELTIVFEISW

Row | Compound | Activity (J774.A1) | inhibition [3] | inhibition [4] | inhibition [13] | also measured
1 | C=C(C)[C@@H]1CCC(C)=C[C@H]1c1c(O)cc([Si](C)(C)CCCC)cc1O | Non-Toxic | – | – | – | –
2 | C=C(C)[C@@H]1CCC(C)=C[C@H]1C1=C(O)C(=O)C([Si](C)(C)C)=CC1=O | Non-Toxic | Active | Active | – | inhibition [1]: > 80%; Activity (Mus musculus [2]): Active; inhibition [5]: Active; inhibition [6]: > 50%; metabolised at 5 min [7]: 10%; Drug degradation [8]: Stable; inhibition [9]: > 20%; Activity (Mus musculus [10]): Active
3 | CCCCCC1=CC(=O)C(C/C=C(\C)CCC=C(C)C)=C(O)C1=O | – | – | – | – | inhibition [11]: inactive
4 | CC(C)=CCC/C(C)=C/CC1=C(O)C(=O)C([Si](C)(C)C)=CC1=O | Non-Toxic | inactive | inactive | Active | inhibition [12]: Active; inhibition [5]: Active
5 | CCCCCc1cc(O)c(C/C=C(\C)CCC=C(C)C)c(O)c1 | – | – | – | Active | –
6 | COc1cc2c(c(OC)c1OC)-c1ccc(OC)c(=O)cc1[C@@H](NC(C)=O)CC2 | – | – | – | – | Activity (Mus musculus [14]): Active
7 | CCCC[Si](C)(C)c1cc(O)c(C/C=C(\C)CCC=C(C)C)c(O)c1 | Non-Toxic | – | – | – | –
8 | CC(C)=CCC/C(C)=C/Cc1c(O)cc([Si](C)(C)C)cc1O | Non-Toxic | – | – | – | –
9 | CCCCCC[Si](C)(C)c1cc(O)c(C/C=C(\C)CCC=C(C)C)c(O)c1 | Non-Toxic | – | – | Active | inhibition [1]: 60%
10 | C=C(C)[C@@H]1CCC(C)=C[C@H]1C1=C(O)C(=O)C(CCCCC)=CC1=O | – | – | – | – | metabolised at 5 min [15]: < 20%; Stability [16]: Stable; inhibition [11]: inactive
11 | C=C(C)[C@@H]1CCC(C)=C[C@H]1c1c(O)cc([Si](C)(C)CCCCCC)cc1O | Non-Toxic | – | – | – | –
12 | CCCCCC[Si](C)(C)C1=CC(=O)C(C/C=C(\C)CCC=C(C)C)=C(O)C1=O | Non-Toxic | inactive | inactive | Active | inhibition [17]: Active; inhibition [12]: Active
13 | CCCC[Si](C)(C)C1=CC(=O)C(C/C=C(\C)CCC=C(C)C)=C(O)C1=O | Non-Toxic | inactive | inactive | Active | inhibition [17]: Active; inhibition [12]: Active
